Data as given in publication PMC9420858, “Synthesis, bioactivity, and molecular docking of novel arylpiperazine derivatives as potential AR antagonists” (Frontiers in Chemistry, 2022).

How the values were obtained:
[1] = system: PC-3 cells; test: Antiproliferative activity, CCK-8 assay, PC-3 cells; type: cell-based; details: PC-3 human prostate cancer cell line, 24 h, mean ± SD of three experiments
Method: (§1) The antiproliferative activity of compounds 5–26 was assessed using the CCK-8 assay ([Chen et al., 2016]; [Chen et al., 2017]; [Chen et al., 2018]; [Han et al., 2020]; [Guo et al., 2021]; [Hu et al., 2022]; [Zhou et al., 2022]). The 96-well plates (1×10^5 cells/mL) were seeded with cells in a medium, the plates were cultured at 37 °C for 24 h, then different concentrations of tested drugs were added, and the plates were cultured for 24 h. After 24 h, 10 μL of CCK-8 solution (5 mg/ml) was added to the wells, and the cells were cultured for 1 h at 37°C. Cell growth inhibition was performed by measuring the absorbance at 450 nm using a microplate reader, and the percentage of cell growth inhibition was then calculated for each tested drug.
(§2) Antiproliferative activity of the novel arylpiperazine derivatives was firstly evaluated against LNCaP cells using the CCK-8 assay. […] Naftopidil and finasteride ([Banday et al., 2014]) were used as control compounds. RWPE-1 cells were used to compare their toxicity. To clarify whether the antiproliferative activity was related to any interference with AR function, the AR antagonist effect was evaluated using the luciferase reporter gene assay. […] The AR luciferase assays were conducted under the co-treatment of 1 nM AR agonist R1881, and the antagonistic activity was measured by inhibiting the R1881-induced luciferase expression.

[2] = system: RWPE-1 cells; test: Cytotoxicity, CCK-8 assay, RWPE-1 normal prostate epithelial cells; type: cell-based; details: RWPE-1 normal non-cancer human prostate epithelial cell line, 24 h, mean ± SD of three experiments
Method: as §1, §2

[3] = system: LNCaP cells; test: Antiproliferative activity, CCK-8 assay, LNCaP cells; type: cell-based; details: Homo sapiens, LNCaP, 24 h, LNCaP human prostate cancer cell line, mean ± SD of three experiments
Method: as §1, §2

SMILES | IC50 [1] [µM] | melting point [°C] | IC50 [3] [µM] | IC50 [2] [µM]
c1ccc(CN2CCN(CCc3ccc(COc4ccc5c(c4)CCC5)cc3)CC2)cc1 [Compound 6, 1-(4-((2,3-dihydro-1H-inden-5-yloxy)methyl)phenethyl)-4-benzylpiperazine] | 11.3 ± 0.15 | 71.1 to 73.3 | 23.45 ± 0.12 | 11.6 ± 0.21
c1ccc(N2CCN(CCc3ccc(COc4ccc5c(c4)CCC5)cc3)CC2)nc1 [Compound 7, 1-(4-((2,3-dihydro-1H-inden-5-yloxy)methyl)phenethyl)-4-(pyridin-2-yl)piperazine] | > 50 | 90.1 to 91.8 | 15.29 ± 0.13 | 7.68 ± 0.15
Cc1ccc(C)c(N2CCN(CCc3ccc(COc4ccc5c(c4)CCC5)cc3)CC2)c1 [Compound 11, 1-(4-((2,3-dihydro-1H-inden-5-yloxy)methyl)phenethyl)-4-(2,5-dimethylphenyl)piperazine] | 4.31 ± 0.13 | 70.4 to 71.5 | > 50 | > 50
CCOc1ccccc1N1CCN(CCc2ccc(COc3ccc4c(c3)CCC4)cc2)CC1 [Compound 13, 1-(4-((2,3-dihydro-1H-inden-5-yloxy)methyl)phenethyl)-4-(2-ethoxyphenyl)piperazine] | > 50 | 65.2 to 66.1 | > 50 | > 50
Cc1ccc(Cl)cc1N1CCN(CCc2ccc(COc3ccc4c(c3)CCC4)cc2)CC1 [Compound 23, 1-(4-((2,3-dihydro-1H-inden-5-yloxy)methyl)phenethyl)-4-(5-chloro-2-methylphenyl)piperazine] | 0.95 ± 0.14 | 87.4 to 88.3 | 12.6 ± 0.22 | > 50
COc1ccccc1N1CCN(CC(O)COc2cccc3ccccc23)CC1 (centres unmarked) [Naftopidil, reference compound] | 42.1 ± 0.79 |  | 22.4 ± 0.61 | > 50

Second part, led by results:

IC50 [1] [µM] | melting point [°C] | IC50 [3] [µM] | SMILES | IC50 [2] [µM]
> 50 | 61.2 to 62.7 | 42.68 ± 0.14 | Cc1cccc(N2CCN(CCc3ccc(COc4ccc5c(c4)CCC5)cc3)CC2)c1 [Compound 9, 1-(4-((2,3-dihydro-1H-inden-5-yloxy)methyl)phenethyl)-4-m-tolylpiperazine] | 11 ± 0.16
17.2 ± 0.21 | 105.1 to 106.3 | 20.9 ± 0.22 | Cc1ccc(N2CCN(CCc3ccc(COc4ccc5c(c4)CCC5)cc3)CC2)cc1 [Compound 10, 1-(4-((2,3-dihydro-1H-inden-5-yloxy)methyl)phenethyl)-4-p-tolylpiperazine] | 9.24 ± 0.23
> 50 | 64.2 to 65.3 | 18.56 ± 0.17 | Fc1ccccc1N1CCN(CCc2ccc(COc3ccc4c(c3)CCC4)cc2)CC1 [Compound 16, 1-(4-((2,3-dihydro-1H-inden-5-yloxy)methyl)phenethyl)-4-(2-fluorophenyl)piperazine] | > 50
1.45 ± 0.17 | 79.8 to 80.5 | 17.92 ± 0.13 | Fc1ccc(N2CCN(CCc3ccc(COc4ccc5c(c4)CCC5)cc3)CC2)cc1 [Compound 17, 1-(4-((2,3-dihydro-1H-inden-5-yloxy)methyl)phenethyl)-4-(4-fluorophenyl)piperazine] | > 50
1.92 ± 0.24 | 86.1 to 86.5 | 10.7 ± 0.14 | Fc1ccc(N2CCN(CCc3ccc(COc4ccc5c(c4)CCC5)cc3)CC2)c(F)c1 [Compound 18, 1-(4-((2,3-dihydro-1H-inden-5-yloxy)methyl)phenethyl)-4-(2,4-difluorophenyl)piperazine] | > 50
1.56 ± 0.14 | 83.2 to 84.3 | 16.98 ± 0.15 | Clc1cccc(N2CCN(CCc3ccc(COc4ccc5c(c4)CCC5)cc3)CC2)c1 [Compound 20, 1-(4-((2,3-dihydro-1H-inden-5-yloxy)methyl)phenethyl)-4-(3-chlorophenyl)piperazine] | > 50
